{
  "source": "ChEMBL document CHEMBL1201862",
  "about": "“PubChem BioAssay data set” (2004)",
  "key": {"[1]": {"biological_target": "T1, DNA repair and recombination protein RAD54-like (Homo sapiens, UniProt Q92698)", "T1 sequence (Q92698 whole entry)": "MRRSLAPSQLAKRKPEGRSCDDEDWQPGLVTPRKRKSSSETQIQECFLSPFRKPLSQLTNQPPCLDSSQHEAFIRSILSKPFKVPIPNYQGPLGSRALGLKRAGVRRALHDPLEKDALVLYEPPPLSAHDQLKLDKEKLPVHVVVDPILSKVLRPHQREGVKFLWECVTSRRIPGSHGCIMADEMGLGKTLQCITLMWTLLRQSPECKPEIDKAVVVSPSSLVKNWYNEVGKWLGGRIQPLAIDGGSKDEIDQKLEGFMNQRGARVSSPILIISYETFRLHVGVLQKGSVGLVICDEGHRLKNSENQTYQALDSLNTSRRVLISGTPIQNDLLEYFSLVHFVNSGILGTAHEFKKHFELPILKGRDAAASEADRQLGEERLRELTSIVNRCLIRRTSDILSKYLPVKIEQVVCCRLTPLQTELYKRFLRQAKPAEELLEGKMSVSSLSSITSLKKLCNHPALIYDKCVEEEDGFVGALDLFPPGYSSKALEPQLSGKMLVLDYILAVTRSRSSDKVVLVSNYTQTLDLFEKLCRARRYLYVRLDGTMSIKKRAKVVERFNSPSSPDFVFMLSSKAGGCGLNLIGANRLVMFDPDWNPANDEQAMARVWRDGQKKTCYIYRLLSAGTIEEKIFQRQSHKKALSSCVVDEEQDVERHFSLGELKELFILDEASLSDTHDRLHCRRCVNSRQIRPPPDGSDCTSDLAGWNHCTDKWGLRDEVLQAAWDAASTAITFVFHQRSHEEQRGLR", "experiment": "RAD54 Holliday junction migration blockers – biochemical, fluorescence, cherry-picked samples, dose series, confirmation (AID 651657)", "assay_type": "functional"}, "[2]": {"biological_target": "T2, DNA repair protein RAD52 homolog (Homo sapiens, UniProt P43351)", "T2 sequence (P43351 whole entry)": "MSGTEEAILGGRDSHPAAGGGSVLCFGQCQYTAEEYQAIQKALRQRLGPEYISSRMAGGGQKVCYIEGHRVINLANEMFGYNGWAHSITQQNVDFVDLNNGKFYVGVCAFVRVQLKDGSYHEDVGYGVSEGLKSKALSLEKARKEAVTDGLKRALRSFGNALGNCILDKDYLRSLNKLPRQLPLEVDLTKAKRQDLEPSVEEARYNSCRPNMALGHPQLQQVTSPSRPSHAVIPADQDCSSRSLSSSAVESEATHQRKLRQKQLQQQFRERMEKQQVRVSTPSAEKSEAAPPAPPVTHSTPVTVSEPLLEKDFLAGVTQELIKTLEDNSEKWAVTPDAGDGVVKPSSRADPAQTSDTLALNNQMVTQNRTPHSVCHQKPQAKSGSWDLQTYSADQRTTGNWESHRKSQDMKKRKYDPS", "assay_type": "functional, biochemical"}, "[3]": {"biological_target": "Dual specificity tyrosine-phosphorylation-regulated kinase 1A (Rattus norvegicus, UniProt Q63470)", "assay_type": "biochemical, Homo sapiens"}, "HEK293": {"tested_on": "HEK293", "experiment": "EBV LMP1 TES2 canonical NF-kB signalling blockers – cell-based, HEK293, luciferase, cherry-pick, dose response (AID 588343)", "assay_type": "functional", "conditions": "Homo sapiens"}, "[4]": {"biological_target": "Hepatocyte nuclear factor 4-alpha (Homo sapiens, UniProt P41235)", "sequence (P41235 whole entry)": "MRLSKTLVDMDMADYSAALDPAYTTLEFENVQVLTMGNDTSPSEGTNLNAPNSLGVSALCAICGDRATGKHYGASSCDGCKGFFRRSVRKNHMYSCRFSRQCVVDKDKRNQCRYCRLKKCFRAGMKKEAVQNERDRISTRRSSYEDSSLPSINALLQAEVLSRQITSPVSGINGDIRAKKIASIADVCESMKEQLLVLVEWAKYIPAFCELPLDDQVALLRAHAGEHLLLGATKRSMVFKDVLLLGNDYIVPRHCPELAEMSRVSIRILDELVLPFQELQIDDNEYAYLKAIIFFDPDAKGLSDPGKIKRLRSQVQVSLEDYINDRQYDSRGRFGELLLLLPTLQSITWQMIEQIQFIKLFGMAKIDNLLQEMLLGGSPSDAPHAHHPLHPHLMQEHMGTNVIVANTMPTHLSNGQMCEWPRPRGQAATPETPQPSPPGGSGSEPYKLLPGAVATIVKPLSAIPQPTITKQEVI", "assay_type": "functional, cell-based"}, "Vero [5]": {"tested_on": "Vero", "experiment": "cells", "assay_type": "functional, cell-based", "conditions": "Chlorocebus sabaeus"}, "Vero [6]": {"tested_on": "Vero", "experiment": "cells", "assay_type": "functional", "conditions": "Chlorocebus sabaeus"}, "[7]": {"biological_target": "Serine/threonine-protein phosphatase (Candida dubliniensis (strain CD36 / CBS 7987 / NCPF 3949 / NRRLY-17841) (Yeast), UniProt B9W6M3)", "sequence (B9W6M3 whole entry)": "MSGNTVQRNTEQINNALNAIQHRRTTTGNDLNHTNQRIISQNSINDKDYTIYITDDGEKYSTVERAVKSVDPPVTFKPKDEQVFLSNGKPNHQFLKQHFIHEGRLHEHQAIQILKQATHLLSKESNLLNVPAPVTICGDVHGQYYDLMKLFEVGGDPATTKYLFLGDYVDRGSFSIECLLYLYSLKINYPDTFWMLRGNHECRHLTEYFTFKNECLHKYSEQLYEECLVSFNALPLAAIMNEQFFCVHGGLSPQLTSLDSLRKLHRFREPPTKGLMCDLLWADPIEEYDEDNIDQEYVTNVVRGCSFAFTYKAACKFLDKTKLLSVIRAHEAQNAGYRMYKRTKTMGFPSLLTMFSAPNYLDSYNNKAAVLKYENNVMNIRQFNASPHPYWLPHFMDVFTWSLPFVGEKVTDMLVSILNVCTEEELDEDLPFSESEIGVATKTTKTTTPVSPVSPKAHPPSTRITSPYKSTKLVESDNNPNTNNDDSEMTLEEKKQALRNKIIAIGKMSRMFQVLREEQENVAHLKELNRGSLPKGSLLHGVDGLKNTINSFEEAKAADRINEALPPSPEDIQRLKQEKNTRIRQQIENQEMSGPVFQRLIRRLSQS", "experiment": "blockers of CaCl2-induced CDRE-lacZ signaling – S. cerevisiae, luminescence, secondary, dose response (AID 2388);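 further: yeast reporter cells carrying a calcineurin-responsive lacZ construct stimulated with calcium chloride; luminescent beta-galactosidase reporter signal in whole cells rather than isolated phosphatase activity; potency for inhibition where a drop in reporter signal means calcineurin blockade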", "assay_type": "functional, cell-based"}, "Leucine aminopeptidase": {"biological_target": "T3, Leucine aminopeptidase (Plasmodium falciparum 3D7, UniProt Q8IL11)", "T3 sequence (Q8IL11 whole entry)": "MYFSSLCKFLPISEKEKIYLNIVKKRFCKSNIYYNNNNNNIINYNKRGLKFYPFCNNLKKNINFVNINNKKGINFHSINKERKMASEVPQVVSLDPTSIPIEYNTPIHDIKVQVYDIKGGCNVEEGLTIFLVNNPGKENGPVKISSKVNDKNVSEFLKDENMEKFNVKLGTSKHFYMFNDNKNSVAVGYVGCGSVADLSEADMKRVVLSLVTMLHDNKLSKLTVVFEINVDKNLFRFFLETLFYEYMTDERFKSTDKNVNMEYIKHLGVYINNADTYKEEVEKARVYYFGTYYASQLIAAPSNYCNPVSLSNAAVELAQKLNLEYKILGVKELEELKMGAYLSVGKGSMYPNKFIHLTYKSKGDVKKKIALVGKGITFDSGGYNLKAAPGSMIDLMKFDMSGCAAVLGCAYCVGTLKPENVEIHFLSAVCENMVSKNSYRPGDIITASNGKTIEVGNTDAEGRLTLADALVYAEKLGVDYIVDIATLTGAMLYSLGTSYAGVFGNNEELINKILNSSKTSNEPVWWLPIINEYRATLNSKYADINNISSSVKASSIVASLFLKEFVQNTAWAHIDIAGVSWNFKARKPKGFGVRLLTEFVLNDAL", "experiment": "P. falciparum M17LAP inhibitors, primary screen, biochemical, fluorogenic H-Leu-NHMec substrate, 1536-well (AID 1619)", "assay_type": "functional"}, "[8]": {"biological_target": "ATP-dependent molecular chaperone HSP82 (Candida albicans (strain WO-1) (Yeast), UniProt C4YTQ8)", "sequence (C4YTQ8 whole entry)": "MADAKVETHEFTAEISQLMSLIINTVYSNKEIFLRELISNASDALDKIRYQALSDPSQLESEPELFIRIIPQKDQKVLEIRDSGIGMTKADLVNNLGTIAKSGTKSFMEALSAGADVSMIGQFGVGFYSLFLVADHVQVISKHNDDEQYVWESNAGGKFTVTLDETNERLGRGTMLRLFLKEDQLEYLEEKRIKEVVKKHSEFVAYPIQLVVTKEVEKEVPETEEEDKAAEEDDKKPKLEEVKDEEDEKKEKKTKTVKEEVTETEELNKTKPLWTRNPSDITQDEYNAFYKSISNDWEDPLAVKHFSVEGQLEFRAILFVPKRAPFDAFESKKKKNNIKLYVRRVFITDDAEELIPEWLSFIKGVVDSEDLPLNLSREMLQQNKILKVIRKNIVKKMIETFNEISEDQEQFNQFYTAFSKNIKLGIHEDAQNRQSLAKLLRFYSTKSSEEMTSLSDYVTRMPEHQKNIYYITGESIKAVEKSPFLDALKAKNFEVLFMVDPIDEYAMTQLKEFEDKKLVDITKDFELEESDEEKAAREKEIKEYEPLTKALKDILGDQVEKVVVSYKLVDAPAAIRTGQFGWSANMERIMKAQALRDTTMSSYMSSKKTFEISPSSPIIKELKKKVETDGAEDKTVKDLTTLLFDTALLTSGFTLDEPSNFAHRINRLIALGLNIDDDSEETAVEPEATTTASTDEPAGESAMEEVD", "experiment": "steroid-induced GRE reporter decrease in yeast – S. cerevisiae, luminescence, Hsp90 inhibitor project, dose response (AID 2400);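 further: beta-galactosidase luminescence from glucocorticoid response element reporter as proxy for Hsp90 function; inhibitor potency where signal loss means Hsp90 inhibition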", "assay_type": "functional, cell-based"}},
  "note": "Calls of active or inactive are those of the source.",
  "data": [
    {"smiles": "Nc1cc2ccncc2c2ccccc12", "values": [
      {"measurement": "AC50", "setting": "[1]", "result": "11.8 µM (active)"},
      {"measurement": "AC50", "setting": "[2]", "result": "14.2 µM (active)"},
      {"measurement": "AC50", "setting": "[3]", "result": "1.23 µM (active)"},
      {"measurement": "AC50", "setting": "HEK293", "result": "9.97 µM (active)"}
    ]},
    {"smiles": "COC(=O)c1ccc(Cn2cc(/C=C\\[N+](=O)[O-])c3ccccc32)o1", "values": [
      {"measurement": "IC50", "setting": "[4]", "result": "6.73 µM (active)"},
      {"measurement": "IC50", "setting": "Vero [5]", "result": "> 25 µM (active)"},
      {"measurement": "CC50", "setting": "Vero [6]", "result": "10.4 µM (active)"}
    ]},
    {"smiles": "COc1ccc(-n2c(-c3cccc(C)c3[N+](=O)[O-])n[nH]c2=S)cc1", "values": [
      {"measurement": "EC50", "setting": "[7]", "result": "> 180 µM (inactive)"},
      {"measurement": "IC50", "setting": "Leucine aminopeptidase", "result": "23.8 µM (active)"},
      {"measurement": "EC50", "setting": "[8]", "result": "> 150 µM (inactive)"}
    ]}
  ]
}
